Measurements published in US20070219234A1, “Thienopyridine Derivatives” (priority 2004, published 2007).

What was measured:
female F344 rats [1] = assay: Effect on bone mineral density (ovariectomy); type: in vivo, rat; details: 10 mg/kg, orally once per day, six days a week, six weeks
Procedure: 8 week-old female F344 rats were purchased from Charles River Laboratories and used in the following experiment. After ketamine (12.5 mg/ml)/xylazine (2.5 mg/ml) liquid mixture was intraperitoneally injected in an amount of 0.25 ml/100 g for anesthesia, ovariectomy or a sham operation was performed. From the next day of the operation, 0.5% carboxymethyl cellulose sodium salt solution (Wako Pure Chemical Industries, Ltd. Cat. No.039-01335) in which a test compound was suspended was orally administered once per day and six days a week. Six weeks after the administration started, the animals were painlessly killed by removing the whole blood from the aorta abdominalis under ketamine xylazine anesthesia and the right and left femurs were extracted.
After soft tissue was removed from the extracted femurs, the bone density was measured by DXA device DCS-600R (Aloka Co., Ltd.). The bone density was determined for the whole femur as well as three evenly divided parts, i.e., proximal, midshaft and distal end.

female F344 rats [2] = assay: Effect on fracture healing; type: in vivo, rat; details: orally once per day, six days a week, 39 days
Procedure: 12 week-old female F344 rats were purchased from Charles River Laboratories and used in the following experiment. An operation for fracturing bone was performed following a method of Li et al. (J. Bone Miner. Res 1999, 14: 969-979) under ketamine xylazine anesthesia. From the next day of the operation, 0.5% carboxymethyl cellulose sodium salt solution (Wako Pure Chemical Industries, Ltd. Cat. No. 039-01335) in which a test compound was suspended was orally administered once per day and six days a week. 39 days after the administration started, the animals were painlessly killed by removing the whole blood from the aorta abdominalis under ketamine xylazine anesthesia and the femurs were extracted.
After soft tissue was removed from the extracted femurs, they were measured by bone strength measuring apparatus MZ-500D (Maruto Instrument Co., Ltd.). 3-point bending tests were performed and determined by maximum load.

[3] = test system: cells from femurs and tibias of ICR mice; assay: Osteoclast formation suppression test (TRAP activity); type: cell-based, mouse; details: 20 nM active form vitamin D3; compounds 0.01-0.3 μg/ml; culturing for five days
Procedure: 18 day-old ICR mice were purchased from Japan SLC, Inc. and used in the following experiments. The mice were sacrificed by cervical dislocation and the right and left femurs and tibias were extracted. After the tissue around the extracted femurs and tibias was removed, they were finely minced with scissors. 10 mL of 15%-FBS-αMEM was added to the minced femurs and tibias and the supernatant was collected after agitation for one minute and filtering with a cell strainer (Becton Dickinson company). A cell suspension containing 500,000 cells/mL was prepared with 15%-FBS-αMEM. The cell suspension was dispensed to the wells of a 96 well microplate (Falcon company) in an amount of 100 μL per well so as to achieve 50,000 cells/well and cultured for 24 hours. Active form vitamin D3 (Sigma company, Cat.No.D1530) was dispensed to the wells in final concentrations of 20 nM. Compounds were dispensed to the wells in final concentrations of 0.01, 0.03, 0.1, 0.3 μg/ml except the following control group. DMSO was dispensed to the wells of the control group in a final concentration of 0.1% (v/v). Tartrate-resistant acid phosphatase (TRAP) activity was measured for each group after culturing for five days.
The measurement of TRAP activity was performed as follows. That is, after the whole medium was removed from each well of the culturing plate, each well was washed twice by dispensing and removing 100 μL of Dulbecco's phosphate buffer (available from GIBCO BRL Cat. No. 14190-144). After retaining with a mixture of acetone-ethanol (1:1) for one minute, the retention liquid was removed and the wells were stained at 37° C. with Leukocyte acid phosphatase kit (Sigma company, Cat. No. 387-A) for 30 minutes. The staining solution was removed, then 100 μL of 10% sodium dodecylsulfate (Wako Pure Chemical Industries, Ltd. Cat. No. 191-07145) was dispensed and the mixture was stirred for five minutes, and then absorbance was measured using a microplate reader (Bio-rad company). TRAP activity decrease rate (%) in the group blended with test compounds was calculated assuming the observed value of the control group of each plate to be 100% and evaluated as the osteoclast formation suppression activity.

ST2 cells = assay: Osteoblast differentiation test (alkaline phosphatase activity); type: cell-based; details: Mus musculus, ST-2, 96 h; at 0.03 μg/mL; culturing for four days; control group (0.1% DMSO) = 100%; read-out: alkaline phosphatase activity increase rate
Procedure: ST2 cells (available from Institute of Physical and Chemical Research) which are stroma cells derived from mouse marrow were used. In this test, α-MEM medium (available from GIBCO BRL Cat. No. 10370-021) with which 10% (v/v) inactivated fetal bovine serum (available from Hyclone Company, FBS) and 1% (v/v) Penicillin-Streptomycin, Liquid (available from GIBCO BRL Cat. No. 15140-122) are mixed (hereinbelow abbreviated as 10% -FBS-αMEM) was used. Every culture in this test was conducted in a CO2 incubator (37° C., 95% humidity, 5% CO2).
The cells mentioned above were harvested with 2 mL of 0.25% trypsin solution (available from GIBCO BRL Cat. No. 15050-065) and after they were dispersed by adding 10 mL of 10% -FBS-αMEM, the cells were collected by centrifugal separation (25° C., 800 rpm, 5 minutes). A cell suspension containing 40,000 cells/mL was prepared from the collected cells using 10% -FBS-αMEM.
The cell suspension was dispensed to the wells of a 96 well microplate (Falcon company) in an amount of 100 μL per well so as to achieve 4,000 cells/well and cultured for 24 hours. Compounds were dispensed to the wells in final concentrations of 0.01, 0.03, 0.1, 0.3 μg/ml except the following control group. DMSO was dispensed to the wells of the control group in a final concentration of 0.1% (v/v). Alkaline phosphatase (ALP) activity was measured for each group after culturing for four days.
The measurement of ALP activity was performed as follows. That is, after the whole medium was removed from each well of the culturing plate, each well was washed twice by dispensing and removing 100 μL of Dulbecco's phosphate buffer (available from GIBCO BRL Cat. No. 14190-144). Cell lysing solution containing 10 mM MgCl2 and 2%(v/v) TritonX-100 (Sigma company) was prepared and 50 μL/well of the cell lysing solution was dispensed and the mixture was stirred at room temperature for five minutes. An ALP substrate solution containing 50 mM of diethanolamine (Wako Pure Chemical Industries, Ltd. Cat. No. 099-03112) and 20 mM of […] (Wako Pure Chemical Industries, Ltd. Cat. No. 147-02343) was prepared and 50 μL/well of the ALP substrate solution was dispensed and after allowing to stand at room temperature for 10 minutes, absorbance was measured using a microplate reader (Bio-rad company). Alkaline phosphatase activity increase rate (%) in the group blended with test compounds was calculated assuming the observed value of the control group of each plate to be 100% and evaluated as the osteoblast differentiation promoting activity.

Row | melting point [°C] | SMILES | bone density of femur (DXA) (female F344 rats [1]) | fracture healing (3-point bending test, maximum load) (female F344 rats [2]) | osteoclast formation suppression effect (TRAP activity decrease rate) [3] | activity at 0.03 µg/mL (ST2 cells) [%]
1 | – | NC(=O)c1sc2nccc(N3CCCN(c4ccccc4)CC3)c2c1N [Example 57, 3-amino-4-(4-phenyl-1,4-diazepan-1-yl)thieno[2,3-b]pyridine-2-carboxamide] | significantly increased the bone density | significantly improved fracture healing | excellent osteoclast formation suppression effect | > 150
2 | 237 to 239 | NC(=O)c1sc2nccc(N3CCCN(c4ccccn4)CC3)c2c1N [Example 99, 3-amino-4-(4-pyridin-2-yl-1,4-diazepan-1-yl)thieno[2,3-b]pyridine-2-carboxamide] | – | – | excellent osteoclast formation suppression effect | > 150
3 | 229 to 230 | COCC1CCCN(c2ccnc3sc(C(N)=O)c(N)c23)C1 (stereo not shown) [Example 101, 3-amino-4-[3-(methoxymethyl)piperidin-1-yl]thieno[2,3-b]pyridine-2-carboxamide] | – | – | excellent osteoclast formation suppression effect | > 150
4 | 205 to 208 | Cc1ccc(N2CCCN(c3ccnc4sc(C(N)=O)c(N)c34)CC2)nc1 [Example 106, 3-amino-4-[4-(5-methylpyridin-2-yl)-1,4-diazepan-1-yl]thieno[2,3-b]pyridine-2-carboxamide] | – | – | excellent osteoclast formation suppression effect | > 150
